According to PubChem BioAssay AID328 (DTP/NCI, 2004):
Where “and” joins values, the source holds several entries; their conditions need not be identical. Equal entries are not always repeated. Toxic doses and inconclusive results are not listed. How the source made its calls: active means survival T/C of 150% or more; inactive means T/C below 125% in these data.

Test system: BDF1 mice, P388 leukemia ip, median survival T/C
Assay: NCI In Vivo Anticancer Drug Screen. Data for tumor model P388 Leukemia (intraperitoneal) in B6D2F1 (BDF1) mice
Settings: endpoint: median survival time, higher = longer survival
Summary of the method: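 Steps: implant the tumour, treat one group with compound and another with vehicle, record survival, then divide treated by control.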

[1] = dose: 50.0 mg/kg/injection, schedule: Q01DX009 (ip), vehicle: saline with Tween-80
[2] = dose: 100.0 mg/kg/injection, schedule: Q01DX009 (ip), vehicle: saline with Tween-80
[3] = dose: 200.0 mg/kg/injection, schedule: Q01DX009 (ip), vehicle: saline with Tween-80
[4] = dose: 400.0 mg/kg/injection, schedule: Q01DX009 (ip), vehicle: saline with Tween-80
[5] = dose: 100.0 mg/kg/injection, schedule: Q04DX003 (ip), vehicle: saline with Tween-80
[6] = dose: 200.0 mg/kg/injection, schedule: Q04DX003 (ip), vehicle: saline with Tween-80
[7] = dose: 400.0 mg/kg/injection, schedule: Q04DX003 (ip), vehicle: saline with Tween-80
[8] = dose: 50.0 mg/kg/injection, schedule: Q04DX003 (ip), vehicle: saline
[9] = dose: 100.0 mg/kg/injection, schedule: Q04DX003 (ip), vehicle: saline
[10] = dose: 50.0 mg/kg/injection, schedule: Q04DX003 (ip), vehicle: saline with Tween-80
[11] = dose: 100.0 mg/kg/injection, schedule: Q04DX003 (ip), vehicle: Klucel (hydroxypropylcellulose) (HPC)
[12] = dose: 200.0 mg/kg/injection, schedule: Q04DX003 (ip), vehicle: Klucel (hydroxypropylcellulose) (HPC)
[13] = dose: 400.0 mg/kg/injection, schedule: Q04DX003 (ip), vehicle: Klucel (hydroxypropylcellulose) (HPC)

Measured: T/C

OC(CN(CCCl)CCCl)C(O)C(O)C(O)CN(CCCl)CCCl (stereo not drawn)
inactive: dose: 6.0 mg/kg/injection, schedule: Q04DX003 (ip), vehicle: saline 86 % of control | dose: 26.0 micrograms/kg/injection, schedule: Q04DX003 (ip), vehicle: saline 100 % of control | dose: 40.0 micrograms/kg/injection, schedule: Q04DX003 (ip), vehicle: saline 112 % of control | dose: 60.0 micrograms/kg/injection, schedule: Q04DX003 (ip), vehicle: saline 120 % of control
active: dose: 0.13 mg/kg/injection, schedule: Q04DX003 (ip), vehicle: saline 150 % of control | dose: 0.2 mg/kg/injection, schedule: Q04DX003 (ip), vehicle: saline 166 % of control | dose: 0.25 mg/kg/injection, schedule: Q04DX003 (ip), vehicle: saline 155 % of control | dose: 0.3 mg/kg/injection, schedule: Q04DX003 (ip), vehicle: saline 191 % of control | dose: 0.44 mg/kg/injection, schedule: Q04DX003 (ip), vehicle: saline 212 % of control | dose: 0.5 mg/kg/injection, schedule: Q04DX003 (ip), vehicle: saline 183 % of control | dose: 0.67 mg/kg/injection, schedule: Q01DX009 (ip), vehicle: saline 241 % of control | dose: 1.0 mg/kg/injection, schedule: Q01DX009 (ip), vehicle: saline 219 % of control | dose: 1.0 mg/kg/injection, schedule: Q04DX003 (ip), vehicle: saline 177 % of control and 213 % of control | dose: 1.5 mg/kg/injection, schedule: Q01DX009 (ip), vehicle: saline 213 % of control | dose: 1.5 mg/kg/injection, schedule: Q04DX003 (ip), vehicle: saline 272 % of control and 177 % of control | dose: 2.0 mg/kg/injection, schedule: Q04DX003 (ip), vehicle: saline 281 % of control | dose: 2.25 mg/kg/injection, schedule: Q04DX003 (ip), vehicle: saline 245 % of control

CC1N/C(=C/c2ccccc2)C(=O)O1 (stereo not drawn)
inactive: [1] 118 % of control | [2] 121 % of control

N#CSc1ncnc2nc[nH]c12
inactive: dose: 3.0 mg/kg/injection, schedule: Q01DX009 (ip), vehicle: alkali diluted with saline 110 % of control | dose: 3.0 mg/kg/injection, schedule: Q04DX003 (ip), vehicle: alkali diluted with saline 100 % of control | dose: 4.0 mg/kg/injection, schedule: Q01DX009 (ip), vehicle: alkali diluted with saline 95 % of control | dose: 6.0 mg/kg/injection, schedule: Q01DX009 (ip), vehicle: alkali diluted with saline 116 % of control | dose: 6.0 mg/kg/injection, schedule: Q04DX003 (ip), vehicle: alkali diluted with saline 95 % of control | dose: 9.0 mg/kg/injection, schedule: Q01DX009 (ip), vehicle: alkali diluted with saline 95 % of control | dose: 12.0 mg/kg/injection, schedule: Q01DX009 (ip), vehicle: alkali diluted with saline 120 % of control | dose: 12.0 mg/kg/injection, schedule: Q04DX003 (ip), vehicle: alkali diluted with saline 100 % of control and 113 % of control

COc1ccc(/C=C/C(=O)c2ccccc2)cc1Br
inactive: [2] 109 % of control | [3] 109 % of control | [4] 113 % of control

CC(=O)OCc1c(COC(C)=O)c(-c2ccc(Cl)cc2)n2c1CCC2
inactive: dose: 12.5 mg/kg/injection, schedule: Q01DX009 (ip), vehicle: Klucel (hydroxypropylcellulose) (HPC) 119 % of control | dose: 25.0 mg/kg/injection, schedule: Q01DX009 (ip), vehicle: Klucel (hydroxypropylcellulose) (HPC) 123 % of control | dose: 50.0 mg/kg/injection, schedule: Q01DX009 (ip), vehicle: Klucel (hydroxypropylcellulose) (HPC) 98 % of control

CCOC1=C(C#N)CC2(CC1)c1ccccc1-c1ccccc12
inactive: [5] 95 % of control | [6] 95 % of control | [7] 91 % of control

O=COc1ccc([N+](=O)[O-])cc1
inactive: dose: 25.0 mg/kg/injection, schedule: Q04DX003 (ip), vehicle: saline 95 % of control | [8] 100 % of control | [9] 100 % of control

COC(=O)/C=C/c1ccc([N+](=O)[O-])cc1
inactive: [5] 118 % of control | [6] 113 % of control | [7] 109 % of control

O=[N+]([O-])c1cccc(/C=C/c2ccc(S(=O)(=O)F)cc2)c1
inactive: [10] 95 % of control | [5] 109 % of control | [6] 95 % of control

c1ccc(-c2cc[s+]s2)cc1
inactive: dose: 3.12 mg/kg/injection, schedule: Q01DX009 (ip), vehicle: water 110 % of control and 114 % of control | dose: 6.25 mg/kg/injection, schedule: Q01DX009 (ip), vehicle: water 94 % of control and 103 % of control and 120 % of control | dose: 12.5 mg/kg/injection, schedule: Q01DX009 (ip), vehicle: water 100 % of control and 103 % of control and 123 % of control | dose: 12.5 mg/kg/injection, schedule: Q04DX003 (ip), vehicle: water 116 % of control | dose: 25.0 mg/kg/injection, schedule: Q01DX009 (ip), vehicle: water 100 % of control | dose: 25.0 mg/kg/injection, schedule: Q04DX003 (ip), vehicle: water 104 % of control | dose: 50.0 mg/kg/injection, schedule: Q01DX009 (ip), vehicle: water 92 % of control and 116 % of control | dose: 200.0 mg/kg/injection, schedule: Q04DX003 (ip), vehicle: water 101 % of control

CC(=O)OC1CC2c3ccccc3C1c1cccc[n+]12 (stereo not drawn)
inactive: dose: 2.34 mg/kg/injection, schedule: Q01DX009 (ip), vehicle: Klucel (hydroxypropylcellulose) (HPC) 87 % of control | dose: 4.68 mg/kg/injection, schedule: Q01DX009 (ip), vehicle: Klucel (hydroxypropylcellulose) (HPC) 91 % of control | dose: 9.37 mg/kg/injection, schedule: Q01DX009 (ip), vehicle: Klucel (hydroxypropylcellulose) (HPC) 91 % of control | dose: 18.75 mg/kg/injection, schedule: Q01DX009 (ip), vehicle: Klucel (hydroxypropylcellulose) (HPC) 87 % of control

NC(Cc1cc(Br)c(O)c(Br)c1)C(=O)O (stereo not drawn)
inactive: dose: 25.0 mg/kg/injection, schedule: Q01DX009 (ip), vehicle: saline 108 % of control | dose: 50.0 mg/kg/injection, schedule: Q01DX009 (ip), vehicle: saline 92 % of control | [8] 120 % of control | dose: 100.0 mg/kg/injection, schedule: Q01DX009 (ip), vehicle: saline 96 % of control | [9] 105 % of control | dose: 200.0 mg/kg/injection, schedule: Q01DX009 (ip), vehicle: saline 120 % of control | dose: 200.0 mg/kg/injection, schedule: Q04DX003 (ip), vehicle: saline 115 % of control | dose: 400.0 mg/kg/injection, schedule: Q01DX009 (ip), vehicle: saline 113 % of control

NC(=S)N/N=C/c1ccc2c(c1)OCO2
inactive: [10] 95 % of control | [5] 100 % of control

CS(=O)(=O)N(CC(=O)O)Cc1ccc(Cl)c(Cl)c1
inactive: dose: 25.0 mg/kg/injection, schedule: Q04DX003 (ip), vehicle: other 102 % of control | dose: 50.0 mg/kg/injection, schedule: Q04DX003 (ip), vehicle: other 102 % of control | dose: 100.0 mg/kg/injection, schedule: Q04DX003 (ip), vehicle: other 93 % of control | dose: 200.0 mg/kg/injection, schedule: Q04DX003 (ip), vehicle: other 106 % of control and 107 % of control | dose: 300.0 mg/kg/injection, schedule: Q04DX003 (ip), vehicle: other 95 % of control

NC(=O)c1ccc(-c2c3ccccc3cc3c2ccc2ccccc23)cc1
inactive: [1] 95 % of control | [2] 89 % of control | [3] 89 % of control | [4] 106 % of control

C#CCOCC1CN(c2ccccc2)C(=O)O1 (stereo not drawn)
inactive: [11] 95 % of control | [12] 100 % of control | [13] 100 % of control

Cc1c(Cl)c(Cl)c(C)c(Cl)c1Cl
inactive: [11] 94 % of control | [12] 100 % of control | [13] 100 % of control

Cn1cnc([N+](=O)[O-])c1Sc1nc(N)nc2nc[nH]c12
inactive: dose: 16.5 mg/kg/injection, schedule: Q01DX009 (ip), vehicle: saline with Tween-80 96 % of control
active: dose: 7.0 mg/kg/injection, schedule: Q01DX009 (ip), vehicle: saline with Tween-80 190 % of control | dose: 11.0 mg/kg/injection, schedule: Q01DX009 (ip), vehicle: saline with Tween-80 190 % of control

CCN(CC)CCOC(=O)c1ccc(OCCOc2ccc(C(C)(C)CC(C)(C)C)cc2)c([N+](=O)[O-])c1
inactive: dose: 75.0 mg/kg/injection, schedule: Q04DX003 (ip), vehicle: saline sonified 110 % of control | dose: 150.0 mg/kg/injection, schedule: Q04DX003 (ip), vehicle: saline sonified 110 % of control | dose: 300.0 mg/kg/injection, schedule: Q04DX003 (ip), vehicle: saline sonified 105 % of control
